Experimental findings from article PMC9968125, “Secondary Metabolites with Anti-Inflammatory Activity from Laurencia majuscula Collected in the Red Sea” (Marine Drugs, 2023) are described below.

One data set deals with RAW 264.7 cells. Description: MTT assay, cytostatic activity on RAW 264.7 cells. It is filed as cell-based, mouse. Conditions: for cytostatic activity above the stated concentration: RAW 264.7, 24, 48 and 72 h; for Cytostatic Activity: RAW 264.7, at 72 h, n.a. = no cytostatic activity observed at the concentrations tested. Here is the method:
In order to verify that the anti-inflammatory activity observed was not due to a potential cytostatic effect of the metabolites, an MTT assay was performed in cells exposed to increasing concentrations of metabolites 1, 2, 4–8, 10, 12–16, 18 and 20–22 for 24, 48 and 72 h (Table 3, Figure 5). The time point that the cytostatic activity was observed reflected its potency since cytotoxicity is a cumulative process.
Mouse macrophage RAW 264.7 cell line was cultured in DMEM medium (cat. # 21885-025, Gibco) supplemented with 10% v/v heat-inactivated fetal bovine serum (cat. # 10270-106, Gibco) and 1% v/v penicillin-streptomycin (cat. # 15070-063, Gibco). Cells were grown in stable conditions, 37 °C and 5% CO2, in a CO2 cell culture sterile incubator. In compound treatments, each compound tested was diluted in Carbowax^TM 400 + 10% abs. ethanol (E/0650DF/17, Fisher chemical), serving also as the control solvent. The final concentration of ethanol in cell culture was 0.01% v/v and of Carbowax^TM 400 0.1% v/v independently of the compound dilution prepared. Macrophage activation was performed using 100 ng/mL LPS (L2630, Sigma) and, in the case of compound-treated cells, macrophages were pre-treated for 1 h with the respective compounds before LPS stimulation.
5 × 10^3 RAW 264.7 mouse macrophages per sample were seeded in 96-well plates (one plate per measurement) and cultured overnight. Cells were treated with the respective compound concentration and incubated for 24, 48 or 72 h. The number of cells was measured prior to treatment and used as normalization control. Thiazolyl Blue Tetrazolium Bromide (MTT) (A2231.001, Applichem) was added to the cells in a final concentration of 500 µg/mL and then cells were incubated at 37 °C plus 5% CO2 for 4 h. The supernatant was removed, and cells were lysed in a mix of 100 μL of isopropanol with 0.4% HCl. The absorbance of each sample was measured using an automated microplate reader (Infinite 200 PRO, Tecan) at 600 nm. The average OD of each treated sample was normalized to the OD of the control sample.
A general note: Tetrazolium dyes change colour on reduction, which living cells bring about.

Data set [1] concerns nitric oxide (NO) production in LPS-activated RAW 264.7 macrophages. The data set can be described thus: Suppression of NO release (Griess reaction) in LPS/TLR4-activated RAW 264.7 macrophages. It is filed as cell-based, mouse. Conditions: for IC50: 1 h pre-treatment, LPS 100 ng/mL, Griess reaction at 48 h, read-out: Inhibition of NO Production (IC50). Here is the method: The anti-inflammatory activity of metabolites 1, 2, 4–8, 10, 12–16, 18 and 20–22 was evaluated using the RAW 264.7 macrophage cell line, which has been proven to be a powerful tool for the detection of bioactivity of natural products. The bioactivity of compounds 3, 9, 11, 17 and 19 was not evaluated since they were either proven unstable or isolated in insufficient amounts. RAW 264.7 macrophages were stimulated with the TLR4 ligand LPS, which triggers a pro-inflammatory signal that induces nitric oxide (NO) production, and […] with increasing concentrations of the tested metabolites. The detection of NO was achieved using Griess reaction 48 h following cell activation and was used to determine the IC50 values. Inhibition of NO production was determined by comparing metabolite-treated cells with cells exposed to the vehicle solvent only (0.1% v/v Carbowax^TM 400 and 0.01% v/v ethanol). […] Mouse macrophage RAW 264.7 cell line was cultured in DMEM medium (cat. # 21885-025, Gibco) supplemented with 10% v/v heat-inactivated fetal bovine serum (cat. # 10270-106, Gibco) and 1% v/v penicillin-streptomycin (cat. # 15070-063, Gibco). Cells were grown in stable conditions, 37 °C and 5% CO2, in a CO2 cell culture sterile incubator. In compound treatments, each compound tested was diluted in Carbowax^TM 400 + 10% abs. ethanol (E/0650DF/17, Fisher chemical), serving also as the control solvent. The final concentration of ethanol in cell culture was 0.01% v/v and of Carbowax^TM 400 0.1% v/v independently of the compound dilution prepared. Macrophage activation was performed using 100 ng/mL LPS (L2630, Sigma) and, in the case of compound-treated cells, macrophages were pre-treated for 1 h with the respective compounds before LPS stimulation. 30 × 10^4 RAW 264.7 mouse macrophages per sample were cultured overnight in 24-well plates. The following day, cells were pre-treated for 1 h with the respective compound concentration and then activated using LPS (100 ng/mL) for 48 h. The amount of nitrite, an oxidative product of NO, released in each culture supernatant was measured using Griess reaction. Accordingly, 50 µL of sulfanilamide solution (1% sulfanilamide in 5% H3PO4) was added to 50 µL of cell culture supernatant and the mix was incubated for 5 min at room temperature. Then, 50 µL of NED solution (0.1% N-1-napthylethylenediamine dihydrochlorite in H2O) was added and the absorbance was measured at 540 nm using an automated microplate reader (Infinite 200 PRO, Tecan). All incubations were performed in the dark and the nitrite concentration was estimated using a sodium nitrite standard curve.
Background: The Griess reaction detects nitrite, a stable product of nitric oxide.

Data set [2] can be described thus: Chemical stability of the isolated compound upon standing. It is filed as physicochemical. Conditions: upon standing after isolation.
Setting [3] is: Mus musculus, RAW264.7, RAW 264.7 macrophages.

A word on the IC50: it is the concentration that inhibits the measured activity by half.

Entries after “also recorded” stand apart in the source; their conditions may differ. Like-named read-outs stand apart in the source and are kept apart here. Some results are limits rather than exact numbers.

With `CC1CCC(O)C2=CCC3C(C3(C)C)C21C` (stereo not drawn) [Compound 20, aristol-9-en-1α-ol], in the data set on RAW 264.7 cells, the “cytostatic activity above the stated concentration” value is given as “above 50 μM” and the Cytostatic Activity is > 50 µM. For the same compound, the IC50 in data set [1] (setting [3]) turned out to be 10.5 µM.

As to `C#C/C=C\CC(Br)[C@@H]1C[C@@H](OC(C)=O)[C@H](CCCCC)O1` (relative stereo) [Compound 5, (3Z,7S*,9R*,10S*)-9-acetoxy-6-bromo-7,10-epoxypentadec-3-en-1-yne], in the data set with RAW 264.7 cells, the Cytostatic Activity is > 50 µM. In data set [1] (setting [3]), the IC50 amounted to 3.69 µM.

For `C=C1CCC(Br)C(C)(C)C12CCC1(C)C(Br)CCC(C)(O)C1C2` (centres unmarked) [Compound 21, kahukuene B], the Cytostatic Activity with RAW 264.7 cells was > 25 µM. In data set [1] (setting [3]), the concentration for half-maximal inhibition (IC50) was 6.66 µM.

As for `Cc1ccc([C@]2(C)CC[C@@]3(C)O[C@]32C)cc1` (relative stereo) [Compound 11, (1S*,2S*,3R*)-2,3-epoxydihydroisolaurene], the “stability of the isolated compound, in words” value in data set [2] was “quite unstable”.

As to `C#CC=CC(Cl)C1C2CC3OC(OC)(C(Br)CC)C1C3O2` (centres unmarked) [Compound 3, Maneonene H], the “stability of the isolated compound, in words” value in data set [2] is on record as “unstable”.

Regarding `CC1=CC[C@@H](Br)C(C)(C)[C@]12CC[C@](C)(Cl)[C@@H](Br)C2` [Compound 16, 2,10-dibromo-3-chloro-a-chamigrene], in the data set with RAW 264.7 cells, the “cytostatic activity above the stated concentration” value was “above 25 μM” and the Cytostatic Activity was > 25 µM. The concentration for half-maximal inhibition (IC50) in data set [1] (setting [3]) was determined as 4.97 µM.

Regarding `CC1=C(C)[C@](C)(c2ccc(CBr)cc2)CC1` (single isomer, unassigned) [Compound 8, 15-bromoisolaurene], in the data set on RAW 264.7 cells, the “cytostatic activity above the stated concentration” value is given as “above 25 μM” and the Cytostatic Activity is > 25 µM. In data set [1] (setting [3]), the IC50 stood at 6.92 µM.

For `CC1(C)[C@H](O)CC[C@@]1(C)c1ccc(CO)cc1` [Compound 13, cuparene-3,12-diol], in the data set on RAW 264.7 cells, the “cytostatic activity above the stated concentration” value was “above 50 μM” and the Cytostatic Activity is > 50 µM. The IC50 in data set [1] (setting [3]) is 23.8 µM.

In the case of `C=C1[C@](C)(O)CC[C@@]1(C)c1ccc(CO)cc1` [Compound 12, laur-2-ene-3,12-diol], in the data set with RAW 264.7 cells, the “cytostatic activity above the stated concentration” value was “above 50 μM” and the Cytostatic Activity was > 50 µM. For the same compound, the IC50 in data set [1] (setting [3]) was determined as 45.2 µM.

`C#CC=CC(Cl)C1C2CC3OC(OC)(C(Br)CC)C1C3O2` (centres unmarked) [Compound 2, Maneonene G]: in the data set on RAW 264.7 cells, the “cytostatic activity above the stated concentration” value is recorded as “above 25 μM” and the Cytostatic Activity is > 25 µM. In addition, the 50% inhibitory concentration (IC50) in data set [1] (RAW 264.7 macrophages) came out at 12.7 µM.

For the compound `CC(=O)CC[C@](C)(C(C)=O)c1ccc(CO)cc1` (single isomer, unassigned) [Compound 14, 2,3-dioxo-15-hydroxy-seco-laurene], in the data set on RAW 264.7 cells, the “cytostatic activity above the stated concentration” value is “above 25 μM” and the Cytostatic Activity was > 25 µM. For the same compound, in data set [1] (setting [3]), the IC50 is 22.7 µM.

For `CC1=CC[C@H](C)[C@](C)(O)[C@@]12CC[C@@](C)(Cl)[C@H](Br)C2` [Compound 18, compositacin A], the 50% inhibitory concentration (IC50) in data set [1] (setting [3]) was 3.55 µM.

With `C#CC=CC(Cl)C1C2CC3OC(OC)(C(Br)CC)C1C3O2` (centres unmarked) [Compound 1, Maneonene F], the “cytostatic activity above the stated concentration” value in the data set on RAW 264.7 cells was “did not exhibit any cytostatic activity; also recorded: did not show any cytostatic effect”. In data set [1] (setting [3]), the IC50 was determined as 10.2 µM.

Take `CC1=C(C)[C@](C)(c2ccc(C)cc2)CC1` [Compound 6, isolaurene]: the Cytostatic Activity with RAW 264.7 cells is > 50 µM. In data set [1] (LPS-activated RAW 264.7, activity only at this concentration), the “concentration at which significant NO reduction was observed” value amounted to 62.5 µM. In addition, the concentration for half-maximal inhibition (IC50) in data set [1] (setting [3]) was > 62.5 µM.

With `C=CC(C)(O)CC[C@@H]1C(=C)CC[C@H](Br)C1(C)C` (stereo partly drawn) [Compound 15, β-snyderol], in the data set on RAW 264.7 cells, the “cytostatic activity above the stated concentration” value was “above 25 μM” and the Cytostatic Activity was > 25 µM. For the same compound, in data set [1] (setting [3]), the IC50 turned out to be 33.1 µM.

As for `CCCCCCCCCCCC/C=C(\Cl)C=O` [Compound 22, (2Z)-2-chloro-pentadec-2-enal], in the data set with RAW 264.7 cells, the “cytostatic activity above the stated concentration” value is > 3.125 µM and the Cytostatic Activity was > 3.12 µM. The IC50 in data set [1] (setting [3]) was determined as 13.2 µM.

As for `C#C/C=C\[C@@H](Cl)[C@H]1[C@@H]2/C(=C(/Br)CC)O[C@@H]3C[C@H]1O[C@H]23` [Compound 4, cis-maneonene D], the “cytostatic activity above the stated concentration” value in the data set with RAW 264.7 cells was “did not exhibit any cytostatic activity; also recorded: no significant cytostatic activity”. Also, in data set [1] (setting [3]), the concentration for half-maximal inhibition (IC50) is 8.91 µM.

Take `CC1=C(C)[C@](C)(c2ccc(C)cc2)CC1=O` (stereo in doubt) [Compound 7, 4-oxoisolaurene]: in the data set on RAW 264.7 cells, the “cytostatic activity above the stated concentration” value was “above 25 μM” and the Cytostatic Activity was > 25 µM. For the same compound, the concentration for half-maximal inhibition (IC50) in data set [1] (setting [3]) was 25.3 µM.

On to `C[C@@]12O[C@]1(C)CC[C@@]2(C)c1ccc(CO)cc1` (relative stereo) [Compound 10, (1S*,2S*,3R*)-2,3-epoxy-15-hydroxydihydroisolaurene], for which, in the data set on RAW 264.7 cells, the “cytostatic activity above the stated concentration” value is on record as “above 50 μM” and the Cytostatic Activity was > 50 µM. Also, the IC50 in data set [1] (setting [3]) came out at 20.5 µM.
